The CheMixHub ionic liquid set
± gives the uncertainty stated by the source.

Assay: xn = mol fraction of the nth substance listed

CCCC[n+]1ccn(C)c1.F[B-](F)(F)F + C1COCCO1
298.15 K, 100 kPa
Conditions | electrical conductivity [S/m] | viscosity [mPa·s]
x1 = 0.2559 | 0.403 ± 0.004 | 6.011 ± 0.079
x1 = 0.3956 | 0.395 ± 0.004 | 12.17 ± 0.16
x1 = 0.4988 | 0.34 ± 0.003 | 19.88 ± 0.26
x1 = 0.6 | 0.306 ± 0.003 | 29.48 ± 0.38
x1 = 0.7021 | – | 42.97 ± 0.55
x1 = 0.8993 | 0.252 ± 0.003 | 79.5 ± 1.4
x1 = 1 | 0.243 ± 0.002 | 104.7 ± 2.6

CCCC[n+]1ccn(C)c1.F[B-](F)(F)F + C=CC(=O)OC
101 kPa, x1 = 1
Conditions | viscosity [mPa·s]
303.15 K | 76.3 ± 1.9
313.15 K | 46.2 ± 1

CCCC[n+]1ccn(C)c1.F[B-](F)(F)F + CC#N
Conditions | electrical conductivity [S/m] | viscosity [mPa·s]
298.15 K, 100 kPa, x1 = 0.1059 | 1.25 ± 0.013 | 0.879 ± 0.011
298.15 K, 100 kPa, x1 = 0.2213 | 1.16 ± 0.012 | 2.027 ± 0.026
298.15 K, 100 kPa, x1 = 0.3008 | 1.08 ± 0.011 | 3.372 ± 0.043
298.15 K, 100 kPa, x1 = 0.3894 | 0.782 ± 0.008 | 5.548 ± 0.071
298.15 K, 100 kPa, x1 = 0.4432 | 0.733 ± 0.007 | 7.71 ± 0.1
298.15 K, 100 kPa, x1 = 0.6178 | 0.509 ± 0.005 | 18.74 ± 0.24
298.15 K, 100 kPa, x1 = 0.7111 | 0.374 ± 0.004 | 26.09 ± 0.33
298.15 K, 100 kPa, x1 = 0.8146 | 0.338 ± 0.003 | 41.69 ± 0.53
298.15 K, 100 kPa, x1 = 0.9113 | 0.252 ± 0.003 | 68.51 ± 0.99
298.15 K, 100 kPa, x1 = 1 | 0.243 ± 0.002 | 104.7 ± 2.6
298.15 K, 101 kPa, x2 = 0 | 0.194 ± 0.023 | 116 ± 40
298.15 K, 101 kPa, x2 = 0.0956 | 0.278 ± 0.033 | 80 ± 15
298.15 K, 101 kPa, x2 = 0.2023 | 0.453 ± 0.054 | 50.9 ± 1.6
298.15 K, 101 kPa, x2 = 0.3174 | 0.672 ± 0.081 | 31 ± 3.1
298.15 K, 101 kPa, x2 = 0.4034 | 0.91 ± 0.11 | 20.9 ± 2.2
298.15 K, 101 kPa, x2 = 0.5137 | 1.34 ± 0.16 | 11.9 ± 1.3
298.15 K, 101 kPa, x2 = 0.6131 | 1.83 ± 0.22 | 6.78 ± 0.82
298.15 K, 101 kPa, x2 = 0.7085 | 2.48 ± 0.3 | 3.78 ± 0.5
298.15 K, 101 kPa, x2 = 0.8093 | 3.1 ± 0.37 | 1.91 ± 0.26
298.15 K, 101 kPa, x2 = 0.8631 | 3.21 ± 0.39 | 1.32 ± 0.19
298.15 K, 101.33 kPa, x2 = 0.3999 | – | 17.6 ± 1.3
298.15 K, 101.33 kPa, x2 = 0.7988 | – | 1.79 ± 0.17
298.15 K, 101.33 kPa, x2 = 0.8988 | – | 0.887 ± 0.092
303.15 K, 101 kPa, x2 = 0 | – | 84.2 ± 1.6
303.15 K, 101 kPa, x2 = 0.2034 | – | 35.6 ± 0.4
313.15 K, 101 kPa, x2 = 0.4013 | – | 11.15 ± 0.13
313.15 K, 101 kPa, x2 = 0.6018 | – | 4.33 ± 0.05
323.15 K, 101 kPa, x2 = 0 | – | 35.5 ± 0.4
323.15 K, 101 kPa, x2 = 0.3011 | – | 12.61 ± 0.14
323.15 K, 101 kPa, x2 = 0.5 | – | 5.7 ± 0.07
323.15 K, 101 kPa, x2 = 0.7997 | – | 1.221 ± 0.016

CCCC[n+]1ccn(C)c1.O=C([O-])C(F)(F)F + CC#N
298.15 K, 101 kPa, x2 = 0.2556
Conditions | electrical conductivity [S/m] | viscosity [mPa·s]
– | 0.84 ± 0.1 | 24.6 ± 2.5

CCC[N+]1(C)CCCC1.O=S(=O)([N-]S(=O)(=O)C(F)(F)F)C(F)(F)F + CC#N
electrical conductivity [S/m], 101 kPa, frequency 0.0005 MHz
Conditions | 278.15 K | 288.15 K | 298.15 K | 308.15 K | 318.15 K | 328.15 K
x1 = 0.03242 | 2.26 ± 0.09 | 2.44 ± 0.1 | 2.63 ± 0.11 | 2.78 ± 0.11 | 2.91 ± 0.12 | 3.13 ± 0.13
x1 = 0.09134 | 2.76 ± 0.11 | 3.03 ± 0.12 | 3.31 ± 0.13 | 3.54 ± 0.14 | 3.77 ± 0.15 | 3.92 ± 0.16
x1 = 0.2317 | 2.01 ± 0.08 | 2.35 ± 0.09 | 2.69 ± 0.11 | 2.97 ± 0.12 | 3.28 ± 0.13 | 3.53 ± 0.14

viscosity [mPa·s], 101 kPa
Conditions | 278.15 K | 288.15 K | 298.15 K | 308.15 K | 318.15 K | 328.15 K | 338.15 K | 348.15 K | 358.15 K
x1 = 0.03242 | 0.649 ± 0.027 | 0.581 ± 0.024 | 0.516 ± 0.021 | 0.46 ± 0.019 | 0.405 ± 0.017 | – | – | – | –
x1 = 0.09134 | 1.145 ± 0.047 | 0.993 ± 0.04 | 0.877 ± 0.036 | 0.797 ± 0.033 | 0.706 ± 0.029 | 0.621 ± 0.025 | – | – | –
x1 = 0.2317 | 3.57 ± 0.27 | 2.91 ± 0.13 | 2.44 ± 0.1 | 2.079 ± 0.086 | 1.798 ± 0.074 | 1.592 ± 0.07 | – | – | –
x1 = 1 | 163.6 ± 7 | 96.2 ± 4 | 60.6 ± 2.4 | 40.8 ± 1.6 | 28.9 ± 1.2 | 21.3 ± 0.86 | 16.29 ± 0.66 | 12.82 ± 0.52 | 10.34 ± 0.42

CCCC[n+]1ccn(C)c1.F[B-](F)(F)F + CC(=O)N(C)C
Conditions | electrical conductivity [S/m] | viscosity [mPa·s]
288.15 K, 100 kPa, x1 = 5.846e-05 | 0.003905 ± 1.9e-06 | –
288.15 K, 100 kPa, x1 = 0.0006944 | 0.04135 ± 2e-05 | –
293.15 K, 101 kPa, x1 = 0.7419 | – | 51.8 ± 7.8
293.15 K, 101 kPa, x1 = 0.8488 | – | 74 ± 11
293.15 K, 101 kPa, x1 = 0.9175 | – | 96 ± 14
293.15 K, 101 kPa, x1 = 1 | – | 125 ± 19
298.15 K, 100 kPa, x1 = 0.0002592 | 0.01885 ± 9e-06 | –
298.15 K, 101 kPa, x1 = 0.7419 | – | 44.6 ± 6.7
298.15 K, 101 kPa, x1 = 0.8488 | – | 63.1 ± 9.5
298.15 K, 101 kPa, x1 = 0.9175 | – | 81 ± 12
298.15 K, 101 kPa, x1 = 1 | – | 105 ± 16
303.15 K, 101 kPa, x1 = 0.7419 | – | 36.7 ± 5.5
303.15 K, 101 kPa, x1 = 0.8488 | – | 52.7 ± 7.9
303.15 K, 101 kPa, x1 = 0.9175 | – | 67 ± 10
303.15 K, 101 kPa, x1 = 1 | – | 88 ± 13
308.15 K, 100 kPa, x1 = 5.846e-05 | 0.005095 ± 2.4e-06 | –
308.15 K, 100 kPa, x1 = 0.0008703 | 0.06575 ± 3e-05 | –
308.15 K, 100 kPa, x1 = 0.001047 | 0.07765 ± 3.5e-05 | –
308.15 K, 101 kPa, x1 = 0.7419 | – | 29.6 ± 4.5
308.15 K, 101 kPa, x1 = 0.8488 | – | 43.4 ± 6.5
308.15 K, 101 kPa, x1 = 0.9175 | – | 54.9 ± 8.3
308.15 K, 101 kPa, x1 = 1 | – | 72 ± 11
313.15 K, 101 kPa, x1 = 0.7419 | – | 22.6 ± 3.4
313.15 K, 101 kPa, x1 = 0.8488 | – | 33.5 ± 5
313.15 K, 101 kPa, x1 = 0.9175 | – | 42.9 ± 6.5
313.15 K, 101 kPa, x1 = 1 | – | 57.7 ± 8.7
313.15 K, 101 kPa, x2 = 0.5002 | – | 9.57 ± 0.11
313.15 K, 101 kPa, x2 = 0.8999 | – | 1.434 ± 0.019
318.15 K, 101 kPa, x1 = 0.7419 | – | 16.2 ± 2.4
318.15 K, 101 kPa, x1 = 0.8488 | – | 24.3 ± 3.7
318.15 K, 101 kPa, x1 = 0.9175 | – | 31.8 ± 4.8
318.15 K, 101 kPa, x1 = 1 | – | 44 ± 6.6
323.15 K, 101 kPa, x1 = 0.7419 | – | 9.8 ± 1.5
323.15 K, 101 kPa, x1 = 0.8488 | – | 16.2 ± 2.4
323.15 K, 101 kPa, x1 = 0.9175 | – | 22.3 ± 3.4
323.15 K, 101 kPa, x1 = 1 | – | 31.6 ± 4.7
323.15 K, 101 kPa, x2 = 0.5998 | – | 5.02 ± 0.06
323.15 K, 101 kPa, x2 = 0.6996 | – | 3.3 ± 0.04
323.15 K, 101 kPa, x2 = 0.8999 | – | 1.253 ± 0.016
333.15 K, 101 kPa, x2 = 0.8002 | – | 1.77 ± 0.023

CCCC[n+]1ccn(C)c1.O=C([O-])C(F)(F)F + CC(=O)[O-].CCCC[n+]1ccn(C)c1
viscosity [mPa·s], 101 kPa
Conditions | 293.15 K | 298.15 K | 303.15 K | 313.15 K | 323.15 K | 333.15 K | 343.15 K | 353.15 K
x2 = 0 | – | – | 58 ± 2.5 | 37.8 ± 1.6 | 26.1 ± 1.1 | 18.89 ± 0.82 | 14.47 ± 0.63 | 11.25 ± 0.49
x2 = 0.2508 | 137.7 ± 7.2 | 103 ± 4.9 | 78.8 ± 3.5 | 49.7 ± 2.1 | 33 ± 1.4 | 23.2 ± 1 | 17.33 ± 0.74 | 13.18 ± 0.56
x2 = 0.4999 | 210 ± 13 | 152.5 ± 8.3 | 113.3 ± 5.5 | 66.8 ± 2.9 | 42.9 ± 1.8 | 29.1 ± 1.2 | 20.74 ± 0.88 | 15.68 ± 0.67
x2 = 0.7487 | 343 ± 25 | 238 ± 15 | 171.1 ± 9.6 | 94.9 ± 4.4 | 57.4 ± 2.4 | 37.6 ± 1.6 | 25.9 ± 1.1 | 18.86 ± 0.8

CN(CCO)CCO + CC(=O)[O-].CC[n+]1ccn(C)c1
101 kPa, x2 = 0
Conditions | electrical conductivity [S/m] | viscosity [mPa·s]
288.15 K | 0.000224 ± 2.2e-05 | –
293.15 K | 0.00029 ± 2.9e-05 | –
298.15 K | 0.000397 ± 4e-05 | –
303.15 K | 0.000528 ± 5.3e-05 | –
308.15 K | 0.000675 ± 6.8e-05 | –
313.15 K | 0.000896 ± 9e-05 | –
318.15 K | 0.00113 ± 0.00011 | –
323.15 K | 0.00144 ± 0.00014 | –
328.15 K | 0.00187 ± 0.00019 | 16.9 ± 1
333.15 K | 0.00236 ± 0.00024 | –
338.15 K | 0.00295 ± 0.0003 | 11.56 ± 0.7
343.15 K | 0.00365 ± 0.00036 | 9.79 ± 0.59
348.15 K | 0.00455 ± 0.00046 | –
353.15 K | 0.00556 ± 0.00056 | –

CC(=O)[O-].C[NH+]1CCCC1 + CC(=O)[O-].Cn1cc[nH+]c1
298.15 K, 100 kPa
Conditions | viscosity [mPa·s]
x2 = 0 | 3.78 ± 0.08
x2 = 0.1 | 4.87 ± 0.1
x2 = 0.19 | 5.35 ± 0.11
x2 = 0.31 | 6.23 ± 0.13
x2 = 0.4 | 6.46 ± 0.14
x2 = 0.5 | 6.78 ± 0.15
x2 = 0.59 | 6.74 ± 0.15
x2 = 0.71 | 6.59 ± 0.15
x2 = 0.8 | 6.47 ± 0.15

CCCC[n+]1ccn(C)c1.F[B-](F)(F)F + CC(=O)c1ccccc1
100 kPa, x2 = 0
Conditions | viscosity [mPa·s]
293.15 K | 133 ± 27
303.15 K | 77 ± 15
313.15 K | 49.1 ± 9.8
323.15 K | 33 ± 6.6
333.15 K | 23.3 ± 4.7
